One test addresses T1, E. coli B nitroreductase (Escherichia coli, UniProt P38489).
T1 construct: endogenous in cells; host or cells: E. coli B cell paste; endogenous enzyme purified by Phenyl-Sepharose and Q-Sepharose chromatography, not recombinant
Put plainly: Enzyme kinetic and inhibition studies. Type of test: biochemical. The procedure:
Protein concentration was determined using the a conventional protein assay (Bio-Rad) calibrated against bovine serum albumin.

Test [1] deals with V79 cells. Kind of test: Survival (colony forming ability) of V79 cells with enzyme-activated prodrugs (Table 8). Format: cell-based. Particulars: 500 μM NADH alone. As to the method: Generation of cytotoxicity by the action of the E. coli nitroreductase of Example 1 upon the prodrugs 4-[bis(2-chloroethyl)amino]phenylcarbamic acid 4'-nitrobenzyl ester (I where R^1 NH2 =III) and N-4-nitrobenzyloxy-carbonyl-actinomycin D (V) are shown in Table 8.
The effect of enzyme-activated prodrugs on the survival of V79
cells. 1 ml volumes of V79 cells (2 × 10^5 /ml) were incubated
with prodrug, 500 μM NADH, and 10 μg/ml enzyme. After a 2 hour
incubation at 37° C., the cells were harvested and assayed for
their colony forming ability, and the supernatant assayed for
the concentration of remaining prodrug by HPLC.

The target in test [2] is T2, Walker NAD(P)H dehydrogenase (quinone) EC 1.6.99.2 (Rattus norvegicus, UniProt P05982).
T2 construct: the enzyme isolated from the Walker tumour, EC.1.6.99.2; from tissue; host or cells: Walker tumour (Walker cell)
T2 sequence (P05982 2-274 limits assumed): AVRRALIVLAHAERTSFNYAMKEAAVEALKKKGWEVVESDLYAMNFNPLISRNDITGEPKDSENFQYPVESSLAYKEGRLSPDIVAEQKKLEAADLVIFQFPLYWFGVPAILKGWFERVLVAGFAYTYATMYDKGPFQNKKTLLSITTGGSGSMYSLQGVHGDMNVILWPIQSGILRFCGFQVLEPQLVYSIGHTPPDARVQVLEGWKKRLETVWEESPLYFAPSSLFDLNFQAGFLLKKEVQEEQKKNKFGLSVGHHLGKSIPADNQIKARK
Kind of test: Enzyme kinetic studies. Format: biochemical. The procedure: Quinone reductase activities were assayed by a spectrophotometric method using menadione as a substrate and cytochrome c as a terminal electron acceptor as described in Knox et al, Biochem. Pharmacol., 37, 4671-4677, 1988. Initial rates of reaction were determined by linear regression analysis (r>0.995) and kinetic parameters determined from the resulting plots as described by Roberts et al, Biochem. Pharmacol. 38, 4137-4143, 1989. Protein concentration was determined using the a conventional protein assay (Bio-Rad) calibrated against bovine serum albumin.
Kinetic parameters for the E. coli nitroreductase and Walker NAD(P)H, dehydrogenase (quinone) EC. […] The absolute rates of reduction of CB 1954 (i.e. under saturating conditions) by the two enzymes is their kcat values and this is 90 fold higher for the E. coli nitroreductase.

For another test, the system named is MAWI cells. Put plainly: Survival (colony forming ability) of MAWI cells with enzyme-activated prodrugs (Table 7). Type of test: cell-based, human. Particulars: 500 μM NADH alone. As to the method:
The effect of enzyme-activated prodrugs on the survival of MAWI
cells. 1 ml volumes of MAWI cells (2 × 10^5 /ml) were
with 50 μM prodrug, 500 μM NADH, and 10 μg/ml the enzyme of
Example 1. After a 2 hour incubation at 37° C., the cells were
harvested and assayed for their colony forming ability, and the
supernatant assayed for the concentration of remaining prodrug

The test system of test [3] is V79 cells. Kind of test: Survival (colony-forming ability) of V79 cells treated with CB 1954 in the presence of E. coli B nitroreductase (Table 4). Format: cell-based, Hamster. The conditions noted are these: 500 μM NADH. As to the method:
E. coli B nitroreductase. All treatments were for 2 hours at 37°
cells were then plated out for their resulting colony-forming ability.
nitroreductase concentration was 2 μg/ml and NADH was used as a […]

A further test has as its target T3, E. coli nitroreductase (Escherichia coli, UniProt P38489).
T3 construct: endogenous in cells; host or cells: E. coli B cell paste; endogenous enzyme purified by Phenyl-Sepharose and Q-Sepharose chromatography, not recombinant
Put plainly: Cofactor ability for the reduction of CB 1954 (FIG. 1). Type of test: biochemical. The conditions noted are these: compared with NADH; CB 1954 100 μM, reduced cofactor 500 μM. As to the method:
(§1) At various times aliquots (10 μl) were injected onto a Partisil SCX (240×4.7 mm) HPLC column and eluted isocratically (2 ml/min) with 100 mM NaH2 PO4. The eluate was continuously monitored for absorption at 320, 260 and 360 nm and the concentration of CB 1954 calculated by integration of the peak corresponding to this compound on the HPLC trace.
(§2) The ability of the nitroreductase enzyme to be able to use a synthetic cofactor in place of NADH or NADPH for the reduction of CB 1954 is shown in FIG. 1. […] Therefore 1,4-dihydro-nicotinic acid riboside is a selective cofactor for the E. coli nitroreductase enzyme and cannot be used by mammalian DT diaphorase.

In another test the target is T4, Walker DT diaphorase (Rattus norvegicus, UniProt P05982).
T4 construct: the enzyme isolated from the Walker tumour, EC.1.6.99.2; from tissue; host or cells: Walker tumour (Walker cell)
T4 sequence (P05982 2-274 limits assumed): T2 sequence (P05982 2-274 limits assumed)
The description is as above. Format: biochemical. Particulars: CB 1954 100 μM, reduced cofactor 500 μM. As to the method:
as §1, §2

Here are results for two compounds from patent publication US5977065A, “Bacterial nitroreductase for the reduction of CB1954 and analogues thereof to a cytotoxic form” (Cancer Research Campaign Technology Limited, priority 1991, dated 1999).

The Km is the substrate concentration at which the rate is half of its maximum.

T1 sequence (P38489 whole entry): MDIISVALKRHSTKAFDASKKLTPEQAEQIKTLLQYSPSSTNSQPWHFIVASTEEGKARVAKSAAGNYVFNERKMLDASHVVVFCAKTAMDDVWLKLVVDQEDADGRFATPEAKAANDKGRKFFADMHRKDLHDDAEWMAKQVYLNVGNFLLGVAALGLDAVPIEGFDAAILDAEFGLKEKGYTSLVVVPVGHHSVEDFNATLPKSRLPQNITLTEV
T3 sequence (P38489 whole entry): as above

On to `NC(=O)C1=CN([C@@H]2O[C@H](COP(=O)(O)OP(=O)(O)OC[C@H]3O[C@@H](n4cnc5c(N)ncnc54)[C@H](O)[C@@H]3O)[C@@H](O)[C@H]2O)C=CC1` [NADH], for which, on E. coli B nitroreductase, the “Km of the nitroreductase for NADH less than the Walker enzyme” value is listed as “about 10 fold”. For the same compound, the “% SURVIVAL” value with V79 cells [1], in the test with MAWI cells and in the test on V79 cells [3] was 100% throughout. For the same compound, the Km in test [2] came out at 75 µM.

Regarding `O=C(O)C1=CN([C@@H]2O[C@H](CO)[C@@H](O)[C@H]2O)C=CC1` [1,4-dihydro-nicotinic acid riboside], the “ability to act as a cofactor for the reduction of CB 1954” value at E. coli nitroreductase was “equal efficiency”; on Walker DT diaphorase it was “cannot utilise”.
